Reference: patent US6706744B2, “Glucagon antagonists/inverse agonists” (Novo Nordisk A/S, priority 2000, dated 2004)

How the values were obtained:
human glucagon receptor = target: T1, human glucagon receptor (Homo sapiens, UniProt P47871); experiment: Glucagon binding assay (II); conditions: membranes of BHK cells transfected with human glucagon receptor; 125I-glucagon tracer; SPA
T1 construct: expressed in transfected cells; host or cells: BHK (baby hamster kidney) cells; membrane preparation
Experimental: Glucagon Binding Assay (II)
(§1) BHK (baby hamster kidney cell line) cells are transfected with the human glucagon receptor and a membrane preparation of the cells is prepared. Wheat Germ Agglutinin derivatized SPA beads containing a scintillant (WGA beads) (Amersham) bound the membranes. ^125I-glucagon bound to human glucagon receptor in the membranes and excited the scintillant in the WGA beads to light emission. Glucagon or samples binding to the receptor competed with ^125I-glucagon.
(§2) All steps in the membrane preparation are kept on ice or performed at 4° C. BHK cells are harvested and centrifuged. The pellet is resuspended in homogenisation buffer (25 mM HEPES, pH=7.4, 2.5 mM CaCl2, 1.0 mM MgCl2, 250 mg/l bacitracin, 0, 1 mM Pefabloc), homogenised 2×10 sec using Polytron 10-35 homogenizer (Kinematica) and added the same amount of homogenisation buffer as used for resuspension. After centrifugation (15 min at 2000×g) the supernatant is transferred to cold centrifuge tubes and centrifuged for 45 min at 40.000×g. The pellet is resuspended in homogenisation buffer, homogenised 2×10 sec (Polytron) and additional homogenisation buffer is added. The suspension is centrifuged for 45 min at 40.000×g and the pellet is resuspended in resuspension buffer (25 mM HEPES, pH=7.4, 2.5 mM CaCl2, 1.0 mM MgCl2) and homogenised 2×10 sec. (Polytron). The protein concentration is normally around 1.75 mg/ml. Stabilisation buffer (25 mM HEPES, pH=7.4, 2.5 mM CaCl2, 1.0 mM MgCl2, 1% bovine serum albumin, 500 mg/l bacitracin, 2.5 M sucrose) is added and the membrane preparation is stored at −80° C.
The glucagon binding assay is carried out in opti plates (Polystyrene Microplates, Packard). 50 μL assay buffer (25 mM HEPES, pH=7.5, 2.5 mM CaCl2, 1.0 mM MgCl2, 0.003% Tween-20, 0.005% bacitracin, 0.05% sodium azide) and 5 μl glucagon or test compound (in DMSO) are added to each well. 50 μl tracer (^125I-porcine glucagon, 50.000 cpm) and 50 μl membranes (7.5 μg) containing the human glucagon receptor are then added to the wells. Finally 50 μl WGA beads containing 1 mg beads are transferred to the well. The opti plates are incubated for 4 hours on a shaker and then settled for 8-48 hours. The opti plates are counted in a Topcounter. Non-specific binding is determined with 500 nM of glucagon.

human GIP receptor = target: T2, human GIP receptor (Homo sapiens, UniProt P48546); experiment: GIP binding assay; conditions: membranes of BHK cells transfected with human GIP receptor; 125I-GIP tracer; SPA
T2 construct: expressed in transfected cells; host or cells: BHK (baby hamster kidney) cells; membrane preparation
T2 sequence (P48546 22-466): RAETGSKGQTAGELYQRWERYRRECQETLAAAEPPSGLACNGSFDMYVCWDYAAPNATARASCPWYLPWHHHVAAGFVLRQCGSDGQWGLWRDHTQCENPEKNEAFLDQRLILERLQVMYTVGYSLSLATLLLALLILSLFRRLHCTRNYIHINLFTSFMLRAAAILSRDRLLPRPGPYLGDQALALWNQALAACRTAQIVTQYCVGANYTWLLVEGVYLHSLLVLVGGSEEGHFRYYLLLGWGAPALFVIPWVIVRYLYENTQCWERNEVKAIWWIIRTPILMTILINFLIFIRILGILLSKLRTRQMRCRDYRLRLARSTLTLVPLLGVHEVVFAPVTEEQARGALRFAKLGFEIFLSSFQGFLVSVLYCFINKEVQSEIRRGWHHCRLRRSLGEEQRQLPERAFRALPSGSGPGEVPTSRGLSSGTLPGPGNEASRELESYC
Experimental: as §1, with “GIP” for “glucagon”, “^125I-GIP” for “^125I-glucagon”, “GIP” for “Glucagon”, “^125I-GIP.” for “^125I-glucagon.”
as §2, with “0.1” for “0, 1”
The GIP binding assay is carried out in opti plates (Polystyrene Microplates, Packard). 50 μl assay buffer (25 mM HEPES, pH=7.5, 2.5 mM CaCl2, 1.0 mM MgCl2, 0.003% Tween-20, 0.005% bacitracin, 0.05% sodium azide) and 5 μl GIP or test compound (in DMSO) are added to each well. 50 μl tracer (^125I-porcine GIP, 50.000 cpm) and 50 μl membranes (20 μg) containing the human GIP receptor are then added to the wells. Finally 50 μl WGA beads containing 1 mg beads are transferred to the well. The opti plates are incubated for 3.5 hours on a shaker and then settled for 8-48 hours. The opti plates are counted in a Topcounter. Non-specific binding is determined with 500 nM of GIP.

T1 sequence (P47871 26-477): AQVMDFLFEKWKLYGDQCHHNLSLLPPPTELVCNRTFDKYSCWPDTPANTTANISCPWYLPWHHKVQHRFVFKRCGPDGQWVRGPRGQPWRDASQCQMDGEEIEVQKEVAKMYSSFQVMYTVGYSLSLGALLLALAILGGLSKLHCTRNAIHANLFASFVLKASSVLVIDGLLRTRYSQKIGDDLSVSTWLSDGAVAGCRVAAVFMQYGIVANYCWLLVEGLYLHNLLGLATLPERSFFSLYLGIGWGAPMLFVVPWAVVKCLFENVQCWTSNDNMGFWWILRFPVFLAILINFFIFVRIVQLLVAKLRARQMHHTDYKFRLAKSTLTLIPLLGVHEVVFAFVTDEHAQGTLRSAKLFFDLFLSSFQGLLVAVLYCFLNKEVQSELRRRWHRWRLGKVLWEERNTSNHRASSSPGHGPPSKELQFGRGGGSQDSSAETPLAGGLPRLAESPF

| IC50 (human glucagon receptor) [nM] | IC50 (human GIP receptor) [nM] | melting point [°C] | Compound |
| --- | --- | --- | --- |
| 53 | 198 |  | O=C(O)CCNC(=O)c1ccc(CN(C(=O)Nc2cccc(Br)c2)c2ccc(C3=CCCCC3)cc2)cc1 [Example 2, 3-{4-[3-(3-Bromophenyl)-1-(4-cyclohex-1-enylphenyl)ureidomethyl]benzoylamino}propionic acid] |
| 25 | 34 |  | O=C(O)CCNC(=O)c1ccc(CN(C(=O)Nc2cccc(OC(F)(F)F)c2)c2ccc(C3=CCCCC3)cc2)cc1 [Example 3, 3-{4-[3-(3-Trifluoromethoxyphenyl)-1-(4-cyclohex-1-enylphenyl)ureidomethyl]benzoylamino}propionic acid] |
| 49 | 107 | 167.5 to 168.5 | O=C(O)CCNC(=O)c1ccc(CN(C(=O)Nc2ccc(OC(F)(F)F)c(CO)c2)c2ccc(C3CCCCC3)cc2)cc1 [Example 10, 3-{4-[1-(4-Cyclohexylphenyl)-3-(3-hydroxymethyl-4-trifluoromethoxyphenyl)ureidomethyl]benzoylamino}propionic acid] |
| 64 | 152 |  | O=C(O)CCNC(=O)c1ccc(CN(C(=O)Nc2ccc(OC(F)(F)F)c(CO)c2)c2ccc(C3=CCCCC3)cc2)cc1 [Example 11, 3-{4-[1-(4-Cyclohex-1-enylphenyl)-3-(3-hydroxymethyl-4-trifluoromethoxyphenyl)ureidomethyl]benzoylamino}propionic acid] |
| 29 | 82 |  | O=C(O)CCNC(=O)c1ccc(CN(C(=O)Nc2cccc(C(F)(F)F)c2)c2ccc(C3CCCCC3)cc2)cc1 [Example 7, 3-{4-[1-(4-Cyclohexylphenyl)-3-(3-trifluoromethylphenyl)ureidomethyl]benzoylamino}propionic acid] |
| 42 | 265 |  | O=C(O)CCNC(=O)c1ccc(CN(C(=O)Nc2cccc(Br)c2)c2ccc(C3CCCCC3)cc2)cc1 [Example 5, 3-{4-[3-(3-Bromophenyl)-1-(4-Cyclohexylphenyl)ureidomethyl]benzoylamino}propionic acid] |
| 64 | 644 |  | C[C@H](NC(=O)N(Cc1ccc(C(=O)NCCC(=O)O)cc1)c1ccc(C2CCCCC2)cc1)c1ccc(Cl)cc1 [Example 1, 3-{4-[3-[1(S)-(4-Chlorophenyl)ethyl]1-(4-cyclohexylphenyl)ureidomethyl]benzoylamino}propionic acid] |
| 35 | 76 |  | N#Cc1cc(NC(=O)N(Cc2ccc(C(=O)NCCC(=O)O)cc2)c2ccc(C3CCCCC3)cc2)cc(C(F)(F)F)c1 [Example 8, 3-{4-[3-(3-Cyano-5-trifluoromethylphenyl)-1-(4-cyclohexylphenyl)ureidomethyl]benzoyl-amino}propionic acid] |
| 42 | 122 |  | N#Cc1cc(NC(=O)N(Cc2ccc(C(=O)NCCC(=O)O)cc2)c2ccc(C3=CCCCC3)cc2)cc(C(F)(F)F)c1 [Example 9, 3-{4-[3-(3-Cyano-5-trifluoromethylphenyl)-1-(4-cyclohex-1-enylphenyl)ureidomethyl]benzoyl-amino}propionic acid] |
| 9 | 177 |  | CS(=O)(=O)c1cc(NC(=O)N(Cc2ccc(C(=O)NCCC(=O)O)cc2)c2ccc(C3=CCCCC3)cc2)ccc1OC(F)(F)F [Example 6, 3-{4-[1-(4-Cyclohexen-1-ylphenyl)-3-(3-methanesulfonyl-4-trifluoromethoxyphenyl)ureidomethyl]benzoylamino}propionic acid] |
| 29 | 90 |  | O=C(O)CCNC(=O)c1ccc(CN(C(=O)Nc2cc(F)cc(C(F)(F)F)c2)c2ccc(C3CCCCC3)cc2)cc1 [Example 4, 3-{4-[1-(4-Cyclohexylphenyl)-3-(3-fluoro-5-trifluoromethylphenyl)ureidomethyl]benzoylamino}propionic acid] |
